Test results as given in publication PMC5563081, “Modulating Protein-Protein Interactions of the Mitotic Polo-like Kinases to Target Mutant KRAS” (Cell Chemical Biology, 2017).
Like-named read-outs stand apart in the source and are kept apart here.

Key:
hERG ion channel = hERG ion channel (Homo sapiens, UniProt Q12809); test: hERG ion channel activity
U2OS cells = test: Quantification of mitotic phenotypes by immunofluorescence; type: cell-based, human; conditions: 12.5 μM
Protocol: Cells were plated on glass coverslips and incubated overnight. Cells were treated with compound diluted in medium for 24hrs. Medium was then removed and cells fixed in 20mM PIPES pH8, 20mM HEPES pH8, 5mM EGTA, 2mM MgCl, 0.2% Triton X-100 and 3.7% formaldehyde. Cells were washed in PBS containing 0.1% Tween-20 then incubated with anti-alpha tubulin antibody (Santa Cruz sc-32293) and anti-CREST antibody (Europa 90C-CS1058). Cells were washed then incubated with Alexa Fluor 568 labelled goat anti-mouse IgG (Invitrogen A11031) or Alexa Fluor 633 labelled goat anti-mouse IgG (Invitrogen A21052) and Alexa Fluor 488 goat anti-human IgG (Invitrogen A11013). Cells were washed and then mounted on glass slides in Vectashield mounting medium containing DAPI.

PLK1 = biological target: T1, PLK1 (Homo sapiens, UniProt P53350); test: Cellular thermal shift assay (CeTSA / ITDRF-CeTSA) in HeLa cell lysates; type: binding
T1 construct: endogenous in cells; host or cells: HeLa cell lysate
T1 sequence (P53350 whole entry): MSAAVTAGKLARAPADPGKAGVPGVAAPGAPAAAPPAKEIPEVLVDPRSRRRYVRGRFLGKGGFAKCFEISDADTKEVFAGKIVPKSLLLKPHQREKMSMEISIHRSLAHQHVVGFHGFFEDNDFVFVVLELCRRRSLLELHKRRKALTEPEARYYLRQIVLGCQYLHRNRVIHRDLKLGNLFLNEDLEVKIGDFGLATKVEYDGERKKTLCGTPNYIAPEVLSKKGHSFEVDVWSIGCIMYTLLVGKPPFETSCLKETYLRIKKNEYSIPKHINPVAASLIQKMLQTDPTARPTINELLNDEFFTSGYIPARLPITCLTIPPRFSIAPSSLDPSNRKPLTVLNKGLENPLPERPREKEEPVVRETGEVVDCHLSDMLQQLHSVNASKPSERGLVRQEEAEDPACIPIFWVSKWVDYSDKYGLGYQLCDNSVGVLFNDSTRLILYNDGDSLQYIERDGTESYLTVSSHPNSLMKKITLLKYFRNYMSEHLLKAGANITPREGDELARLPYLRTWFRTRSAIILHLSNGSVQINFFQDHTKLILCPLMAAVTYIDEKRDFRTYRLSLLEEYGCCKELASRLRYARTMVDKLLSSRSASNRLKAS
Protocol: Two million HeLa cells were assessed for viability using Trypan blue and aliquoted into PCR tubes for lysate preparation and CeTSA. Aggregation temperature (Tagg) was determined for PLK1 PBD with a Biorad Tetrad gradient maker, using a final concentration of 1mM or 0.5mM for Poloppin or Poloppin-II, respectively, in 5% DMSO ([Jafari et al., 2014]). Samples were assessed using PLK1 antibodies (Invitrogen 33-1700) and GAPDH (Santa Cruz sc137179) and Li-Cor antibody (926-32252). Quantification was done with Odyssey Li-Cor technology.

Panc 05.04 = test: Cell viability (SRB), Panc 05.04; type: cell-based; conditions: Homo sapiens, Panc 05.04, 72 h
Protocol: SW48 Parental, SW48 G12D, Panc-1, HPAF-II, Panc 02.03 and Panc 05.04 cell lines were seeded overnight at 5000 cells per well in a 96 well plate in recommended media (ATCC). Compounds were added the following day and viability was measured at 72h using the sulforhodamine B (SRB) colorimetric assay as follows. Cells were fixed by replacing media with 1% v/v Trichloroacetic Acid (TCA) (Sigma-Aldrich) at 4°C and incubated for 1h also at 4°C. Wells were washed thoroughly with copious amounts of deionised water before staining with Sulforhodamine B (SRB) (Sigma-Aldrich) solution (0.057% w/v in 1% v/v Acetic Acid (VWR)) for 30 min. Stain was aspirated and wells washed with several changes of 1% v/v Acetic Acid until unbound stain was removed, before air-drying. Bound stain was solubilized with 100μl / well 10mM Tris (pH 8.0) (Trizma Base (121.1) Sigma-Aldrich) with agitation for 10 min. Fluorescence intensity was recorded at Ex540nm / Em590nm using a BMG Pherastar Plus plate reader ([Vichai and Kirtikara, 2006]).
Pancreatic organoids were extracted and cultured as detailed above ([Boj et al., 2015]). In brief, pancreatic organoids were seeded at 600 cells per well in a 96 well plate and allowed to grow for 7 days with media replenishment on the 3rd day. Full-grown organoids were then treated with compounds for 72h and viability determined using CellTitre Glo 3D assay (Promega). For viability assays with c-MET siRNA, cells were reverse transfected in a 6 cm dish using Dharmafect 1 (GE Dharmacon) per manufacturer’s instructions. On the following day, cells were trypsinised and plated onto 96 well plates or 6 well plates. The 96 well plates were treated with a dose range of compounds or DMSO, and viability was determined via SRB colorimetric assay. […]
Cells were reverse-transfected with 50nM (SW48 parental, SW48 KRAS G12D and Panc-1) or 25nM (HeLa Flp-In T-REx parental cells) siRNA using Dharmafect (GE Dharmacon) as manufacturer’s recommendations. […] Viability was assessed after 72 hrs, with the SRB colorimetric assay. Knockdown efficiencies were determined by Western blot or RT-qPCR. […]

hERG ion channel, sequence (Q12809 whole entry): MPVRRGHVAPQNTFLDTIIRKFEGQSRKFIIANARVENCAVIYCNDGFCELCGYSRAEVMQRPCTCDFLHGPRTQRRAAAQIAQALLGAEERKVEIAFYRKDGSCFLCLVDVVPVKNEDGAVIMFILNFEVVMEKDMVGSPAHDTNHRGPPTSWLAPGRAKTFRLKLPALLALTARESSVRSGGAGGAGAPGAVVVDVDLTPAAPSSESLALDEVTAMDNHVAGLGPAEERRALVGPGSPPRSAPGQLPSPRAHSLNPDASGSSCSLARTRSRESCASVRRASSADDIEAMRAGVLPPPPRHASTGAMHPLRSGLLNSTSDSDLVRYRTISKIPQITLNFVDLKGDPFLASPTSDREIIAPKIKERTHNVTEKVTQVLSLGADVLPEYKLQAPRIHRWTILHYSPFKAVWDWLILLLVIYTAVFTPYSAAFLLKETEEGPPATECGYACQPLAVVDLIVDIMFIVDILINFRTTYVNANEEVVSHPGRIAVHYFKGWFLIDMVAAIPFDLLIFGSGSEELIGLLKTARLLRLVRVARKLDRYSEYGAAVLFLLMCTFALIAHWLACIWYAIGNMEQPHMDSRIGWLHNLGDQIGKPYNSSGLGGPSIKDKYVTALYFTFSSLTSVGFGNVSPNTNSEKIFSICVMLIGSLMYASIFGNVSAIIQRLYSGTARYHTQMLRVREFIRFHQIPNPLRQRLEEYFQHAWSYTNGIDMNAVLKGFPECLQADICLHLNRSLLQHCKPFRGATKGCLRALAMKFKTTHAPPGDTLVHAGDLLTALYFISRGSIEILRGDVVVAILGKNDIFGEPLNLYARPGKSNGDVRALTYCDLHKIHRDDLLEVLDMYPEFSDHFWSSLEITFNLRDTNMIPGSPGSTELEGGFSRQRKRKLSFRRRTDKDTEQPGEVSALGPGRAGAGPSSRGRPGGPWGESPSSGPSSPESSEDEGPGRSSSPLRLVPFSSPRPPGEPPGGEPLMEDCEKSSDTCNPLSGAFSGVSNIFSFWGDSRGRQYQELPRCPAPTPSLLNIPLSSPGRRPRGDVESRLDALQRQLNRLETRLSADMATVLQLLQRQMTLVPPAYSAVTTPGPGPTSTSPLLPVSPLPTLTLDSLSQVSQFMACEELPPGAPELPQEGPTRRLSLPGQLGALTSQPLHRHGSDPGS

SMILES	activity against the hERG ion channel (hERG ion channel)	cells with normal metaphase chromosome alignment (U2OS cells)	concentration at which cellular PLK1 is stabilized (ITDRF-CeTSA) (PLK1; cell lysates at a constant 67°C)	thermal stability of PLK1 protein (CeTSA) (PLK1; fixed dose of 1 mM, HeLa cell lysates, compared with control)	EC50 (Panc 05.04; read-out: EC50, % survival, Panc 05.04, All Stars control siRNA, 72 h)	EC50 (Panc 05.04; read-out: EC50, % survival, Panc 05.04, siMET, 72 h)
CN(C)CCNC(=O)c1ccc(-c2ccc(-c3ccc(Cl)cc3)n2-c2ccccc2C(F)(F)F)cc1 [Poloppin-II]	inactive	–	–	–	–	–
O=C(O)CCc1ccc(-c2ccc(Br)cc2)n1-c1ccccc1C(F)(F)F [Poloppin]	–	< 5%	> 40 µM	increased thermal stability	23.8 ± 1.08 µM	11.6 ± 1.07 µM
